The values that follow come from patent US20100216875A1, “METHODS OF TREATING ALZHEIMER'S DISEASE” (priority 2006, published 2010).

In assay [1] the target is T1, cathepsin B (Homo sapiens, UniProt P07858). In words: recombinant cathepsin B β-secretase assay (Z-VKM-MCA). The following applies: recombinant human cathepsin B (3.5 ng), Z-V-K-M-MCA substrate (100 μM); read-out: IC50 inhibitory concentration. Also on record: purchased. The assay is classed as biochemical. As for the experimental part:
Peptide structures that inhibit cathepsin B β-secretase activity were used to develop small molecule AD drugs. A library of dipeptide aldehydes were screened for an inhibitory effect on the cathepsin B β-secretase activity using recombinant human cathepsin B (3.5 ng) cleavage of the Z-V-K-M-MCA substrate (100 μM).
The recombinant cathepsin B β-secretase assay occurs in a solution (100 μl total volume) consisting of H2O (20 μl), Na-Acetate (50 mM, pH 5.0), NaCl (100 mM), Z-VKM-MCA (100 μM), GSH (10 mM), EDTA (1 mM), and recombinant human cathepsin B (3.5 ng) and 2DMSO (2%). A dipeptide aldehyde was added to such solutions in varying amounts to determine the IC50. The reagents were generally commercially available or, in the case of the dipeptide aldehydes, custom synthesized. The assay was incubated at 37° C. for 45 minutes and the fluorescence was read using a spectrophotometer (365/450 nm excitation/emission). Assays were run in duplicate. Compounds that inhibited cathepsin B by 80-100% (at 10 μM) underwent dose-response testing at […] to 10 μM to determine potency, measured as IC50 values (determined by non-linear regression a analysis using Graphpad Prism). Compounds with IC50 values in the nanomolar range, up to 100 nM, were selected for further study.

Assay [2] concerns the target T1, cathepsin B. The following applies: reference (4); read-out: IC50 for cathepsin B inhibition; cited from earlier work.
The target in the next assay is aspartyl protease, BACE1 (Homo sapiens, UniProt P56817). The assay is described as follows: effect on BACE1. The class given is biochemical.
Assay [3] deals with brain and synaptosomal Aβ. In words: guinea pig brain and synaptosome Aβ by ELISA after icv infusion. The following applies: icv 0.15 mg/kg/day, 30 days. The class given is in vivo. An excerpt: Guinea pig (gp) is a natural, non-transgenic model of human APP processing gpAPP is 98% homologous to human APP, contains the human wild-type β-secretase site, and gpAβ is identical to human Aβ. Brain synaptosome preparations are enriched with neuronal synapses which are the sites at which regulated secretion occurs and are an in vivo measure of regulated secretory secretion CTFβ is an APP fragment that results from p-secretase cleavage of APP and reflects in vivo β-secretase activity. […] E64d was icy administered into gp brains (0.15 mg/kg/day) for 7 or 30 days. […] In FIG. 5b, total synaptosomal Aβ is shown.
CA074Me (0.15 mg/kg/day) was icy infused into gp brains with mini pumps. […] An equal reduction of Aβ40 and Aβ42 is consistent with the inhibitor affecting p-secretase activity
At the end of the treatment, the brains were isolated and extracted with guanidine hydrochloride and Aβ40 and Aβ42 levels were determined using ELISA.
Cathepsin B inhibitors were administered directly into the brain by icy infusion with minipumps in time course studies at different doses. Guinea pigs were infused with compounds using Alzet pumps (2.5 μl/hr, with compounds at 1 mg/ml in saline) for 7 and 30 days, and other times. This initial dose of compound was selected because E64d and CA074Me are effective at this dose. Each treatment group consisted of eight to ten guinea pigs, including the vehicle control group.
At the end of each experiment, animals were sacrificed and half the brain was taken for ELISA measurement of Aβ40 and Aβ42 levels. The other half was isolated for synaptosome preparations for ELISA measurement of Aβ40 and Aβ42 content in nerve terminals. Synaptosomes were prepared by homogenization in isotonic sucrose (320 mM), pH 7.4, 1 mM EDTA, 0.25 mM dithiothreitol, and 30 U/MI RNAse inhibitor. The homogenate was centrifuged at 1000×g for 10 minutes. The supernatant was loaded on a Sucrose-Percoll discontinuous gradient and centrifuged at 32,000×g for 5 minutes (80) Enriched synaptosomes were washed in PBS, and centrifuged at 12,000×g for 4 minutes. The supernatant was removed, and the synaptosome containing pellet was resuspended in 50% OptiPrep (Accurate Chemica. Westbury, N.Y.), loaded on an OptiPrep discontinuous flotation gradient (9, 12.5, 25, and 35%) and centrifuged at 10,000×g for 20 minutes. The synaptosomes were obtained at the […]
For quantitative analysis of Aβ peptides, an enzyme-linked immunosorbent assay (ELISA) was used to measure the levels of total Aβ, Aβtotal, Aβ40 and Aβ42 in the brains and synaptosomes of guinea pigs (Biosource International, Camarillo, Calif.) Aβtotal, Aβ40, Aβ42 was extracted from guinea pig brains or from synaptosomes by guanidine hydrochloride and quantified as described by the manufacturer. This assay extracted the total Aβ peptide from the brain (both soluble and aggregated). Tissue samples were homogenized in 5M guanidine buffer (5M guanidine HCl in 50 mM Tris-Cl, pH 8.3; Sigma-Aldrich, St. Louis, Mo.) at 1:10 w/v dilution. Homogenates were agitated at room temperature for 3-4 hours, then stored at −20° C. The day before running the ELISA, the tissue samples were diluted further 1:10 to provide a final guanidine concentration of 0.5M. These diluted homogenates were spun down at 14,000 rpm for 20 minutes at 4° C. and supernatants used for Aβ determination by ELISA (84-86). Brain and synaptosome extracts were assayed as diluted in 0.5M guanidine. In addition, Aβ40 and Aβ42 were assayed using ELISA using 6E10 as the capture antibody and Rb209 and Rb321 as reporter antibodies, respectively, for Aβ40 and Aβ42 (96).

For a further assay, the system named is brain Aβ. The following applies: wild-type mice, icv 200 mg/kg/day; cited from earlier work.
For assay [4], the system named is Aβ40 production from endogenous APP in regulated secretory vesicles isolated from chromaffin cells. The assay is described as follows: Aβ production from endogenous APP in isolated regulated secretory vesicles. The class given is biochemical, bovine. The following applies: inhibitor 10 μM. As for the experimental part: Regulated secretory vesicles isolated from chromaffin cells naturally produce Aβ from endogenous APP when incubated at 37° C. in vitro for several hours. These vesicles can be used as an in vitro screen for compounds that inhibit Aβ production. […] The effects of cathepsin B inhibitors, CA074 (10 μM, ♦) and CA074Me (10 μM, □), on the production of Aβ40 from endogenous APP in regulated secretory vesicles isolated from chromaffin cells was evaluated in time course studies. […] Each inhibitor was tested in triplicate; values represent x±sem (*statistically significant with p<0.05).
Cathepsin B compounds that were effective inhibitors of endogenous II-secretase activity were tested for inhibition of Aβ peptide production in regulated secretory vesicles. The effect of reversible cathepsin B compounds on production of Aβ40 and Aβ42 in isolated chromaffin vesicles was tested by incubating candidate inhibitors (at 10 μM) with lysed chromaffin vesicles under identical conditions as for the β-secretase assay for 8 hours. […] After incubation, Aβ40 and Aβ42 was measured by ELISA assays, as described for measurement of Aβ peptides in brain extracts. Each candidate inhibitor was assayed in triplicate.

Assay [5] has as its system endogenous β-secretase activity in regulated secretory vesicles. In words: endogenous β-secretase activity in isolated regulated secretory vesicles, monitored with Z-Val-Lys-Met-MCA. The class given is biochemical, bovine. As for the experimental part: A high throughput screening (HTS) assay was developed to measure protease activity that cleaves the wild-type β-secretase cleavage site. The substrate Z-Val-Lys-Met-MCA mimics the wild-type β-secretase cleavage site upon cleavage between Met-MCA, which generates fluorescent MCA. The free MCA fluorescence provides sensitive and quantitative measurement of protease activity. This assay provides a rapid (30 minutes) and sensitive assay of activity for cleaving the wild-type β-secretase cleavage site of APP, expressed in majority of the AD population Specifically, the Z-Val-Lys-Met-MCA cleaving assay can be used to detect endogenous β-secretase activity in regulated secretory vesicles.
Isolation of regulated secretory vesicles, also known as chromaffin vesicles, from adrenal medullary tissue (bovine) was conducted by sucrose density gradient purification, as described previously (54-56, 58). Briefly, fresh bovine adrenal medulla (from 40 glands) was gently homogenized by a polytron (Brinkmann) in 200-250 ml ice-cold 0.32 M sucrose. The homogenate was centrifuged at 1500 rpm in a GSA rotor (Sorval centrifuge) for 20 minutes at 4° C. The supernatant was collected and centrifuged at 8000 rpm in a GSA rotor for 20 minutes at 4° C. to obtain a pellet of chromaffin vesicles. The pellet was washed 3 times in 0.32 M sucrose. […]

Assay [6] has as its target cathepsin B purified from secretory vesicles (Bos taurus, UniProt P07688). In words: Z-Val-Lys-Met-MCA cleaving activity of purified cathepsin B. The following applies: inhibitor 10 μM.

Where two headings read alike, the source gives them in different places. Peptide text beside a SMILES is read from it. * marks the point of attachment. Cbz = O=C(OCc1ccccc1)*

aspartyl protease, BACE1, sequence (P56817 46-501): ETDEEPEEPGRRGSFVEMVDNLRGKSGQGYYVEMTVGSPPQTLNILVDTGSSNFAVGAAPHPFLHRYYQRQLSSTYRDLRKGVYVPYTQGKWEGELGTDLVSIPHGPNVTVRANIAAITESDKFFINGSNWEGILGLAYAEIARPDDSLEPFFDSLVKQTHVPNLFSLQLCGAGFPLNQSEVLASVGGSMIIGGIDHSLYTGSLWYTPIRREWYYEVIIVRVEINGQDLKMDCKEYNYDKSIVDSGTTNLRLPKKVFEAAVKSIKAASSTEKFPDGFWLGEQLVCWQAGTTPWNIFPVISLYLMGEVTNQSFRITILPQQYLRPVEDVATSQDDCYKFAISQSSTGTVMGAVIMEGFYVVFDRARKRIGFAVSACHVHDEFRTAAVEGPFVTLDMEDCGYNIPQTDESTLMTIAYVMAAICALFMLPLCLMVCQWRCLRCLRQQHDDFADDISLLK

For `CC(=O)NCCCCC(C=O)NC(=O)C(NC(=O)OCc1ccccc1)C(C)C` (stereo not shown) [Z-VK(Ac)-ald], the IC50 on cathepsin B [1] is 31 nM.

In the case of `CC(=O)N[C@@H](CC(C)C)C(=O)N[C@H](C(=O)N[C@H](C=O)CCCCN)C(C)C` [Ac-LVK-CHO, acetyl-L-leucyl-L-valyl-L-lysinal] (Ac-Leu-Val-Lys-aldehyde), at cathepsin B [2], the IC50 is 4 nM. The “effect on BACE1” value on aspartyl protease, BACE1 is recorded as “do not affect”. In assay [3], the “reduction of Aβ40 in brain extracts” value is listed as “about 70%” and the “reduction of Aβ42 in brain extracts” value is approximately 60%.

For the molecule `O=CC(CO)NC(=O)C(CSC(=O)OCc1ccccc1)NC(=O)OCc1ccccc1` (stereo not shown) [Z-C(Z)S-ald] (Cbz-Cys(Cbz)-Ser-aldehyde; configuration not given here), the IC50 at cathepsin B [1] is 67 nM.

On to `CC(C)C[C@H](NC(=O)[C@@H](NC(=O)[C@@H](N)CNC(=O)c1nn[nH]n1)C(C)C)C(=O)N[C@@H](Cc1ccccc1)[C@@H](O)C(=O)Nc1cc(C(=O)O)cc(C(=O)O)c1` [KMI-429], for which the “maximum reduction in brain Aβ” value with brain Aβ was 30-40%.

For the molecule `CCCNC(=O)[C@H]1O[C@@H]1C(=O)N[C@H](C(=O)N1CCC[C@H]1C(=O)O)[C@@H](C)CC` [CA074], the “effect on Aβ production in isolated regulated secretory vesicles” value in assay [4] is “block Aβ production”. The “inhibition of endogenous β-secretase activity in regulated secretory vesicles” value in assay [5] (inhibitor 1 μM) is “completed inhibited”.

`CC(C)CCNC(=O)[C@H](CC(C)C)NC(=O)[C@H]1O[C@@H]1C(=O)O` [E64c]: the “effect on Aβ production in isolated regulated secretory vesicles” value in assay [4] was “inhibited”. Further, the “inhibition of endogenous β-secretase activity in regulated secretory vesicles” value in assay [5] (inhibitor 10 μM) is listed as “completed inhibited”. Moreover, the “inhibition of Z-Val-Lys-Met-MCA cleaving activity of cathepsin B” value in assay [6] is listed as “completely inhibited”.

Consider `CC(C)C(C=O)NC(=O)C(Cc1ccc(O)cc1)NC(=O)OCc1ccccc1` (stereo not drawn) [Z-YV-ald] (Cbz-Tyr-Val-aldehyde; configuration not given here), for which the IC50 at cathepsin B [1] was 65 nM.

With `O=CC(CO)NC(=O)C(Cc1ccc(O)cc1)NC(=O)OCc1ccccc1` (stereo not drawn) [Z-YS-ald] (Cbz-Tyr-Ser-aldehyde; configuration not given here), the IC50 on cathepsin B [1] is 37 nM.

With `CC(=O)NCCCCC(C=O)NC(=O)C(CSC(=O)OCc1ccccc1)NC(=O)OCc1ccccc1` (stereo not shown) [Z-C(Z)K(Ac)-ald] (Cbz-Cys(Cbz)-Lys(Ac)-aldehyde; configuration not given here), at cathepsin B [1], the IC50 was 91 nM.

For the molecule `O=CC(CO)NC(=O)C(CCC(=O)NC(c1ccccc1)(c1ccccc1)c1ccccc1)NC(=O)OCc1ccccc1` (stereo not shown) [Z-Q(Trt)S-ald], at cathepsin B [1], the IC50 came to 58 nM.
